“And” between values parts separate entries of the source, which are not always exact repeats. Equal values may be shown once. Toxic doses and inconclusive results are not listed. Rule for the calls: active = survival T/C of 150% or more; inactive = T/C below 125% in these data.
Test system: BDF1 mice, P388 leukemia ip, median survival T/C
Assay: NCI In Vivo Anticancer Drug Screen. Data for tumor model P388 Leukemia (intraperitoneal) in B6D2F1 (BDF1) mice
Details: endpoint: median survival time, higher = longer survival
Procedure: The antitumor activity of compounds was measured in mice bearing transplantable tumors. Survival or tumor size were measured and the results are expressed as the measurement made in the treated group (T) divided by the measurement made in the vehicle treated control group (C). The tumor model used in this assay is P388 Leukemia (intraperitoneal) in B6D2F1 (BDF1) mice

[1] = dose: 50.0 mg/kg/injection, schedule: Q01DX009 (ip), vehicle: saline with Tween-80
[2] = dose: 100.0 mg/kg/injection, schedule: Q01DX009 (ip), vehicle: saline with Tween-80
[3] = dose: 200.0 mg/kg/injection, schedule: Q01DX009 (ip), vehicle: saline with Tween-80
[4] = dose: 12.5 mg/kg/injection, schedule: Q01DX009 (ip), vehicle: Klucel (hydroxypropylcellulose) (HPC)
[5] = dose: 100.0 mg/kg/injection, schedule: Q04DX003 (ip), vehicle: saline
[6] = dose: 200.0 mg/kg/injection, schedule: Q04DX003 (ip), vehicle: saline
[7] = dose: 6.25 mg/kg/injection, schedule: Q01DX009 (ip), vehicle: saline
[8] = dose: 12.5 mg/kg/injection, schedule: Q01DX009 (ip), vehicle: saline

Measured: T/C

O=C1CCCCCC2CC12 (configuration not stated) (tested in a mixture with another compound)
inactive: dose: 100.0 mg/kg/injection, schedule: Q01DX001 (ip), vehicle: other 98 % of control | dose: 200.0 mg/kg/injection, schedule: Q01DX001 (ip), vehicle: other 103 % of control | dose: 400.0 mg/kg/injection, schedule: Q01DX001 (ip), vehicle: other 108 % of control

COc1cc(NC(N)=O)cc(OC)c1OC
inactive: dose: 18.75 mg/kg/injection, schedule: Q04DX003 (ip), vehicle: saline sonified 100 % of control | dose: 37.5 mg/kg/injection, schedule: Q04DX003 (ip), vehicle: saline sonified 86 % of control | dose: 75.0 mg/kg/injection, schedule: Q04DX003 (ip), vehicle: saline sonified 100 % of control

OC12CCCCC1Cc1cc3c(cc1O2)CC1CCCCC1(O)O3 (configuration not stated)
inactive: [1] 100 % of control | [2] 93 % of control | [3] 96 % of control

C=C1C(=O)OC(/C=C(\C)CO)C1C(C/C(C)=C/CO)OC(=O)/C(C)=C\C (configuration not stated)
inactive: [4] 111 % of control | dose: 25.0 mg/kg/injection, schedule: Q01DX009 (ip), vehicle: Klucel (hydroxypropylcellulose) (HPC) 111 % of control | dose: 50.0 mg/kg/injection, schedule: Q01DX009 (ip), vehicle: Klucel (hydroxypropylcellulose) (HPC) 109 % of control | dose: 100.0 mg/kg/injection, schedule: Q01DX009 (ip), vehicle: Klucel (hydroxypropylcellulose) (HPC) 94 % of control | dose: 200.0 mg/kg/injection, schedule: Q01DX009 (ip), vehicle: Klucel (hydroxypropylcellulose) (HPC) 94 % of control

CC(=O)Nc1nc(C)c(CCC#N)c(=O)[nH]1
inactive: [5] 86 % of control | [6] 90 % of control | dose: 400.0 mg/kg/injection, schedule: Q04DX003 (ip), vehicle: saline 86 % of control

CCOC(=O)CC1=NN(C(=O)c2ccccc2)C(=NC(=O)c2ccccc2)SC1
inactive: [1] 99 % of control | [2] 101 % of control | [3] 90 % of control

CN(C)CCCNc1cc(/C=C/c2cccc3ccccc23)nc2ccccc12
inactive: [1] 95 % of control | [2] 88 % of control | [3] 101 % of control

COc1ccc2c(c1OC)C1C3CC=CC3C2C2=[N+]1CCc1cc3c(cc12)OCO3 (configuration not stated)
inactive: dose: 3.12 mg/kg/injection, schedule: Q01DX009 (ip), vehicle: saline 95 % of control | dose: 6.25 mg/kg/injection, schedule: Q01DX009 (ip), vehicle: Klucel (hydroxypropylcellulose) (HPC) 114 % of control | [7] 100 % of control | [4] 90 % of control | [8] 108 % of control | dose: 18.0 mg/kg/injection, schedule: Q01DX009 (ip), vehicle: Klucel (hydroxypropylcellulose) (HPC) 86 % of control

Cn1cnc([N+](=O)[O-])c1[Se]c1ncnc2c1ncn2C1OC(CO)C(O)C1O (configuration not stated)
inactive: [7] 105 % of control | [8] 113 % of control | dose: 12.5 mg/kg/injection, schedule: Q04DX003 (ip), vehicle: saline 113 % of control | dose: 25.0 mg/kg/injection, schedule: Q01DX009 (ip), vehicle: saline 102 % of control | dose: 25.0 mg/kg/injection, schedule: Q04DX003 (ip), vehicle: saline 100 % of control and 104 % of control | dose: 50.0 mg/kg/injection, schedule: Q04DX003 (ip), vehicle: saline 100 % of control and 113 % of control | [5] 100 % of control | [6] 100 % of control

O=C1NC(c2cccs2)(c2cccs2)C(=O)N1Cl
inactive: dose: 6.25 mg/kg/injection, schedule: Q01DX009 (ip), vehicle: water 94 % of control | dose: 6.25 mg/kg/injection, schedule: Q04DX003 (ip), vehicle: water 97 % of control | dose: 12.5 mg/kg/injection, schedule: Q01DX009 (ip), vehicle: water 104 % of control | dose: 12.5 mg/kg/injection, schedule: Q04DX003 (ip), vehicle: water 97 % of control | dose: 25.0 mg/kg/injection, schedule: Q01DX009 (ip), vehicle: water 103 % of control | dose: 25.0 mg/kg/injection, schedule: Q04DX003 (ip), vehicle: water 97 % of control | dose: 50.0 mg/kg/injection, schedule: Q01DX009 (ip), vehicle: water 116 % of control | dose: 50.0 mg/kg/injection, schedule: Q04DX003 (ip), vehicle: water 95 % of control | dose: 100.0 mg/kg/injection, schedule: Q04DX003 (ip), vehicle: water 95 % of control | dose: 200.0 mg/kg/injection, schedule: Q04DX003 (ip), vehicle: water 88 % of control

Reference: PubChem BioAssay AID328 (DTP/NCI, 2004)
